Source: patent US20220395553A1, “CXCR4 ANTAGONIST PEPTIDES” (COHBAR, INC., priority 2019, published 2022)
Blank lines part the entries; values can stand above or below the molecule they belong to. Square brackets hold non-standard residues; d marks the D form. Peptide text beside a SMILES is read from it.

Assays:
[1] = target: T1, human CXCR4 (Homo sapiens, UniProt P61073); test: Inhibition of β-Arrestin recruitment, single concentration (Example 18); assay type: cell-based; design: host or cells: C2C12 (mouse myoblast) CXCR4 β-Arrestin PathHunter cell line; conditions: peptide 1 μM, […] CXCL12 (EC80), C2C12 CXCR4 β-Arrestin cells
Protocol: Peptides were initially prepared as 1 mM stock in DMSO and tested at a final concentration of 1 μM (0.1% DMSO). C2C12 CXCR4 β-Arrestin cells were seeded onto 384-well plates in standard medium. After overnight culture, the medium was replaced with buffer containing 1 μM peptide and pre-incubated for 30 min at 37° C. […] At the end of the 90 min incubation period, β-Arrestin recruitment in response to various treatments was quantified using a chemiluminescent complementation reporter assay to measure association of tagged human […] (ProLink tag) and tagged β-Arrestin (Enzyme Acceptor tag).

[2] = target: T1, human CXCR4; test: CXCR4/CXCL12 binding, HTRF format, single concentration (Example 23); design: host or cells: HEK293 (Tag-lite CXCR4 cells, frozen aliquots, transient expression); conditions: 15 nM CXCR4R fluorescent probe, 3 hours, HEK293 Tag-lite CXCR4 cells
Procedure, shortened: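 Tag-lite CXCR4 cells were exposed to peptide at 400 nM final with 15 nM (EC80) fluorescent CXCR4 probe for 3 h at room temperature. HTRF was read, and the 665/620 nm ratio ×10,000 measured probe bound to terbium-labelled receptor.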

[3] = target: T1, human CXCR4; test: IC50 for inhibition of β-Arrestin recruitment (Example 19); assay type: cell-based; design: host or cells: C2C12 (mouse myoblast) CXCR4 β-Arrestin PathHunter cell line
Text: C2C12 CXCR4 β-Arrestin cells were seed onto 384-well plates in standard medium.

T1 sequence (P61073 whole entry): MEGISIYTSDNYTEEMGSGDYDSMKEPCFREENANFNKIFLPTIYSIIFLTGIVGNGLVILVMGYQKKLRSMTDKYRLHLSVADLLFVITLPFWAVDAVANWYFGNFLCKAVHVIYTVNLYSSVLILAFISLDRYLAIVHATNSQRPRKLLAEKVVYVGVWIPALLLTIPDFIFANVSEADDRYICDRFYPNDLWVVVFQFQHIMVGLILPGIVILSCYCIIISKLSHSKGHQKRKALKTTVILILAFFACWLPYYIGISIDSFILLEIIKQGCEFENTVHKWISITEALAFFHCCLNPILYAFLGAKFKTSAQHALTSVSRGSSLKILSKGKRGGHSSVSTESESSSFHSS

Percent Inhibition of CXCL12 Mediated CXCR4 Activity [1]: 113.8%
Compound: CC(C)C[C@H](NC(=O)[C@H](CO)NC(=O)[C@H](CO)NC(=O)[C@H](CCCNC(=N)N)NC(=O)[C@@H](NC(=O)[C@H](CO)NC(=O)[C@H](Cc1c[nH]cn1)NC(=O)[C@H](Cc1c[nH]cn1)NC(=O)[C@H](Cc1ccc(O)cc1)NC(=O)[C@H](CCCNC(=N)N)NC(=O)[C@H](CCCNC(=N)N)NC(=O)[C@@H](N)CC(C)C)C(C)C)C(=O)N[C@@H](CCCNC(=N)N)C(=O)N1CCC[C@H]1C(=O)N[C@@H](Cc1ccc(O)cc1)C(=O)N[C@H](C(=O)N[C@@H](CCCCN)C(=O)O)[C@@H](C)O [compound 3] (H-LRRYHHSVRSSLRPYTK-OH; N-terminus and C-terminus assumed)

Percent Inhibition of CXCR4/CXCL12 Binding (400 nM peptide) [2]: 88%
Compound: CC(C)C[C@H](NC(=O)[C@H](CO)NC(=O)[C@H](CO)NC(=O)[C@H](CCCNC(=N)N)NC(=O)[C@@H](NC(=O)[C@H](CO)NC(=O)[C@H](Cc1c[nH]cn1)NC(=O)[C@H](Cc1c[nH]cn1)NC(=O)[C@H](Cc1ccc(O)cc1)NC(=O)[C@H](CCCNC(=N)N)NC(=O)[C@H](CCC(=O)O)NC(=O)[C@@H](N)CC(C)C)C(C)C)C(=O)N[C@@H](CCCNC(=N)N)C(=O)N1CCC[C@H]1C(=O)N[C@@H](Cc1ccc(O)cc1)C(=O)N[C@H](C(=O)N[C@@H](CCCCN)C(=O)O)[C@@H](C)O [compound 4] (H-LERYHHSVRSSLRPYTK-OH; N-terminus and C-terminus assumed)

IC50 [3]: 121 nM
Compound: CC(C)C[C@H](NC(=O)[C@H](CO)NC(=O)[C@H](CO)NC(=O)[C@H](CCCNC(=N)N)NC(=O)[C@@H](C)NC(=O)[C@H](CO)NC(=O)[C@H](Cc1c[nH]cn1)NC(=O)[C@H](Cc1c[nH]cn1)NC(=O)[C@H](Cc1ccc(O)cc1)NC(=O)[C@H](CCCNC(=N)N)NC(=O)[C@H](CCC(=O)O)NC(=O)[C@@H](N)CC(C)C)C(=O)N[C@@H](CCCNC(=N)N)C(=O)N1CCC[C@H]1C(=O)N[C@@H](Cc1ccc(O)cc1)C(=O)N[C@H](C(=O)O)[C@@H](C)O [compound 5] (H-LERYHHS[dA]RSSLRPYT-OH; N-terminus and C-terminus assumed)
